Measured values published in patent US20250161404A1, “METHODS AND COMPOSITIONS FOR THE CONTROL OF INFLAMMATION IN SKIN DISEASE” (VANDERBILT UNIVERSITY, priority 2023, published 2025).
Converted amounts (≈) assume the structure as drawn. Where a SMILES comes first, the peptide text is derived from it. Bridges are numbered along the chain shown (N, C = ends).

Legend:
Imp beta = Imp beta (Homo sapiens, UniProt Q14974); experiment: Cell culture and preclinical studies (Table 3 comment)
[1] = Solubility of the peptide; assay type: physicochemical; conditions: cSN50: depending on the method of synthesis and purification; read-out: soluble at levels of
Description: cSN50.1 is a cyclized peptide having the sequence of cSN50 with the exception that the tyrosine at position 18 of cSN50, adjacent to the first cysteine, has been removed. Methods of making and using cSN50 are described, for example, in U.S. Pat. Nos. 7,553,929 and 6,495,518. The amino acid sequence of cSN50.1 is […] (SEQ ID NO: 2). The tyrosine at position 18 was removed from the sequence of cSN50 to increase solubility. cSN50 is soluble at levels of ranging from 2.0 mg/mL to 40 mg/mL depending on the method of synthesis and purification whereas cSN50.1 is soluble at levels of at least 100 mg/ml. Any mimetics, derivatives, or homologs of cSN50.1 may be used in the compositions, methods, and kits disclosed herein. cSN50.1 is also encompassed by SEQ ID NO: 3, SEQ ID NO: 4 and SEQ ID NO: 5. Additional examples of NTMs include fragment-designed and synthesized peptides in which cargo is incorporated as two, rather than one, modules or cargos derived from intracellular proteins other than NFκB 1. Such additional examples include the sequences of SEQ ID NO: 6, SEQ ID NO: 7, SEQ ID NO: 8, and SEQ ID NO: 9.

[2] = Cell viability of cultured human keratinocytes; assay type: cell-based; conditions: in all conditions, 48 hours after TNF-α/IL-17 challenge
[3] = long-term NTCI treatment; cited from earlier work
Importin beta = Importin beta (Homo sapiens, UniProt Q14974); experiment: Binding studies (Table 3 comment)
Sequence of Importin beta (Q14974 whole entry): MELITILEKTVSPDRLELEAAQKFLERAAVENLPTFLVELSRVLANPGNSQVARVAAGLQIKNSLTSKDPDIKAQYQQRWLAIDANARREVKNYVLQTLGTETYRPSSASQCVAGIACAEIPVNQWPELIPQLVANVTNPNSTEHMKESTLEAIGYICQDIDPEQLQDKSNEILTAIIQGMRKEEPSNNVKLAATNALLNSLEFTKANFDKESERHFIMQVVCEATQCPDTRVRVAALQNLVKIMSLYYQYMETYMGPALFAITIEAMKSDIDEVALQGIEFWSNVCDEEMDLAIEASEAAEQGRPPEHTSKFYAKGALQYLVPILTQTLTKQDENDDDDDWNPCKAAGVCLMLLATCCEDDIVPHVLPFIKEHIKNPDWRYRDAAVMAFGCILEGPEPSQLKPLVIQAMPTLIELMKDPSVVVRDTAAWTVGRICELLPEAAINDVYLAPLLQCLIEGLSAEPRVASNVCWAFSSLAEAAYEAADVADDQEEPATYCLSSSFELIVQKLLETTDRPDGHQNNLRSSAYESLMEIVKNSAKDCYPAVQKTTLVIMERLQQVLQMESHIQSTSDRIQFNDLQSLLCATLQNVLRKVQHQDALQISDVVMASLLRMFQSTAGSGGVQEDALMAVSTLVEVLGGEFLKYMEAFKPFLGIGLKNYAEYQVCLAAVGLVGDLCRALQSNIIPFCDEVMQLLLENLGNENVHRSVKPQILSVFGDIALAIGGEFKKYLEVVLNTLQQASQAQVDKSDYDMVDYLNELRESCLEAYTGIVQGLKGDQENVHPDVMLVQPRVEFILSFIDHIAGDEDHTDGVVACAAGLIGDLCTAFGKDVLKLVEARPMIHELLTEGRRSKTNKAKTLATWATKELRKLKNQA

Sequence of Imp beta (Q14974 whole entry): as above

For AAVALLPAVLLALLAPCVQRDEQKLMPC [cSN50.1β], the “Comments: importin selectivity” value (Imp beta) was “Imp beta-selective”.
In the case of `CSCC[C@@H]1NC(=O)[C@H](CC(C)C)NC(=O)[C@H](CCCCN)NC(=O)[C@H](CCC(N)=O)NC(=O)[C@H](CCCNC(=N)N)NC(=O)[C@H](CCCCN)NC(=O)[C@H](CCCNC(=N)N)NC(=O)[C@H](CCC(N)=O)NC(=O)[C@H](C(C)C)NC(=O)[C@@H](NC(=O)[C@@H]2CCCN2C(=O)[C@H](C)NC(=O)[C@H](CC(C)C)NC(=O)[C@H](CC(C)C)NC(=O)[C@H](C)NC(=O)[C@H](CC(C)C)NC(=O)[C@H](CC(C)C)NC(=O)[C@@H](NC(=O)[C@H](C)NC(=O)[C@@H]2CCCN2C(=O)[C@H](CC(C)C)NC(=O)[C@H](CC(C)C)NC(=O)[C@H](C)NC(=O)[C@@H](NC(=O)[C@H](C)NC(=O)[C@H](C)N)C(C)C)C(C)C)CSSC[C@@H](C(=O)O)NC(=O)[C@@H]2CCCN2C1=O` [cSN50.1] (H-AAVALLPAVLLALLAPCVQRKRQKLMPC-OH; disulfide 17-28; N-terminus and C-terminus assumed), the solubility [1] is given as ≥ 100 mg/mL, the viability at 48 h [2] is given as > 80% and the apparent toxicity [3] is given as “lack of apparent toxicity”.
With “AAVALLPAVLLALLAPVQRDEQKLMP (Description of sequence: Peptide, name of peptide: SM12)” the “Comments: importin selectivity” value (Importin beta) was “Importin beta-”.
For `CSCC[C@@H]1NC(=O)[C@H](CC(C)C)NC(=O)[C@H](CCCCN)NC(=O)[C@H](CCC(N)=O)NC(=O)[C@H](CCCNC(=N)N)NC(=O)[C@H](CCCCN)NC(=O)[C@H](CCCNC(=N)N)NC(=O)[C@H](CCC(N)=O)NC(=O)[C@H](C(C)C)NC(=O)[C@H](Cc2ccc(O)cc2)NC(=O)[C@@H](NC(=O)[C@@H]2CCCN2C(=O)[C@H](C)NC(=O)[C@H](CC(C)C)NC(=O)[C@H](CC(C)C)NC(=O)[C@H](C)NC(=O)[C@H](CC(C)C)NC(=O)[C@H](CC(C)C)NC(=O)[C@@H](NC(=O)[C@H](C)NC(=O)[C@@H]2CCCN2C(=O)[C@H](CC(C)C)NC(=O)[C@H](CC(C)C)NC(=O)[C@H](C)NC(=O)[C@@H](NC(=O)[C@H](C)NC(=O)[C@H](C)N)C(C)C)C(C)C)CSSC[C@@H](C(=O)O)NC(=O)[C@@H]2CCCN2C1=O` [cSN50] (H-AAVALLPAVLLALLAPCYVQRKRQKLMPC-OH; disulfide 17-29; N-terminus and C-terminus assumed), the solubility [1] was 2 to 40 mg/mL (≈ 0.635 to 12.7 mM).
